Source: ChEMBL document CHEMBL1201862, “PubChem BioAssay data set” (2004)
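Cultured in 96-well plates, cells were exposed to test compound for 48 hours across five concentrations. Here, GI50 denotes the concentration required for 50% inhibition of growth.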 Active and inactive are the calls of the source. Cut-off read from the data, not from the text of the source: active = GI50 up to about 1.1 µM and inactive = higher.

How the values were obtained:
Assay in all cases: NCI-60 cell line screen, 48 h
[1] = test system: 786-0
[2] = test system: OVCAR-4
[3] = test system: UACC-257
[4] = test system: UACC-62
[5] = test system: A498
[6] = test system: OVCAR-3
[7] = test system: NCI-H460
[8] = test system: CAKI-1
[9] = test system: SR
[10] = test system: OVCAR-5
[11] = test system: ACHN
[12] = test system: RPMI-8226
[13] = test system: HT-29
[14] = test system: HCC 2998
[15] = test system: MDA-N
[16] = test system: DU-145
[17] = test system: NCI/ADR-RES
[18] = test system: PC-3

Measured: GI50

CC1=C2CC[C@@]3(C)C(=CCC3O)C2(C)CCC1=O (some centres not stated)
inactive: [1] > 100 µM | [2] > 100 µM | [3] > 100 µM | [4] 56.4 µM | [5] 91.6 µM | [6] > 100 µM | [7] > 100 µM | [8] > 100 µM | [9] > 100 µM | [10] > 100 µM | [11] > 100 µM | [12] > 100 µM | [13] > 100 µM | [14] > 100 µM

CCOC(=O)C1=C(O)C(=O)c2ccoc2C1=O
inactive: [1] > 100 µM | [2] > 100 µM | [3] > 100 µM | [4] > 100 µM | [5] > 100 µM | [6] > 100 µM | [7] > 100 µM | [8] > 100 µM | [9] > 100 µM | [10] > 100 µM | [11] > 100 µM | [12] > 100 µM | [13] > 100 µM | [14] > 100 µM

CC(=O)Oc1c(-c2ccccc2)[nH]c2cc([N+](=O)[O-])c(/C(Cl)=C/c3ccccc3)cc12
inactive: [1] 11.2 µM | [2] 5.42 µM | [3] 5.77 µM | [4] 4.24 µM | [5] 2.88 µM | [6] 7.66 µM | [7] 4.62 µM | [8] 10.7 µM | [9] 3.57 µM | [10] 4.22 µM | [11] 5.4 µM | [12] 3.08 µM | [13] 3.2 µM | [14] 4.6 µM

CCC(C)[C@@H](NCc1ccccc1)[C@H](OCc1ccccc1)[C@@H]1COC(C)(C)O1 (some centres not stated)
inactive: [1] 18.8 µM | [2] 28.8 µM | [3] 18.7 µM | [4] 20.6 µM | [15] 32.1 µM | [16] 27.4 µM | [6] 28.7 µM | [17] 21.1 µM | [9] 26.1 µM | [10] 26.1 µM | [11] 20.9 µM | [18] 28.6 µM | [12] 15.8 µM | [13] 10.7 µM

N#CCCN(CCC#N)c1ccc(/C=C(/NC(=O)c2cc([N+](=O)[O-])ccc2Cl)C(=O)NN)cc1
inactive: [1] > 100 µM | [2] > 100 µM | [3] > 100 µM | [4] > 100 µM | [5] > 100 µM | [6] 77.8 µM | [7] > 100 µM | [8] > 100 µM | [9] 3.94 µM | [10] > 100 µM | [11] > 100 µM | [12] 29.6 µM | [13] > 100 µM | [14] > 100 µM

CC#COS(=O)(=O)c1ccc(C)cc1
inactive: [1] 44.4 µM | [2] 58.5 µM | [3] 47.5 µM | [4] 32.4 µM | [5] > 10 µM | [6] 60.5 µM | [7] 70.6 µM | [8] > 100 µM | [9] 33.7 µM | [10] > 100 µM | [11] 58.2 µM | [12] 23.1 µM | [13] 45.9 µM | [14] > 100 µM

c1ccc(C2SCc3nc4ccccc4n32)cc1 (configuration not stated)
inactive: [1] > 100 µM | [2] 66.7 µM | [3] 27.8 µM | [4] 37.2 µM | [5] 40.6 µM | [6] 19.1 µM | [7] 40.8 µM | [8] 42.7 µM | [9] 25.8 µM | [10] > 100 µM | [11] 59.3 µM | [12] 20.1 µM | [13] 46 µM | [14] 30.4 µM

O=C1OC(c2ccccc2)(c2ccccc2)CC1CN1CCOCC1 (configuration not stated)
inactive: [1] 16.7 µM | [2] 23.1 µM | [3] 5.98 µM | [4] 25.6 µM | [5] > 100 µM | [6] 15.6 µM | [7] 60.7 µM | [9] 3.08 µM | [10] 29.2 µM | [11] 17.7 µM | [13] 1.95 µM | [14] 16.5 µM

Clc1ccc(-c2c(C3=NCCN3)nnn2-c2ccccc2)cc1
inactive: [1] > 100 µM | [2] > 100 µM | [3] > 100 µM | [4] > 100 µM | [5] > 100 µM | [6] > 100 µM | [7] > 100 µM | [8] > 100 µM | [9] 49.2 µM | [10] > 100 µM | [11] > 100 µM | [12] > 100 µM | [13] 68.7 µM | [14] > 100 µM

CN(C)CCNC(=O)C1COc2cc(-c3cc(=O)c4ccccc4o3)ccc2O1 (configuration not stated)
inactive: [1] 18.1 µM | [2] 17.8 µM | [3] 18.5 µM | [4] 18.8 µM | [5] 19 µM | [6] 20.5 µM | [7] 38.2 µM | [8] 17.1 µM | [9] 15.6 µM | [10] 29.6 µM | [11] 16.9 µM | [12] 27.9 µM | [13] 16.9 µM | [14] > 100 µM

C=CCC1C(=O)C(C(=O)OC)N2CCc3c([nH]c4ccccc34)C12 (configuration not stated)
inactive: [1] > 100 µM | [2] > 100 µM | [4] > 100 µM | [5] > 100 µM | [6] > 100 µM | [8] > 100 µM | [9] 61.1 µM | [10] > 100 µM | [12] 59.2 µM | [13] > 100 µM | [14] > 100 µM

COc1ccc(CC(=O)NCCc2ccc(OC)c(OC)c2)cc1Br
inactive: [1] > 100 µM | [2] > 100 µM | [3] > 100 µM | [4] 62.1 µM | [5] > 100 µM | [7] > 100 µM | [8] > 100 µM | [9] > 100 µM | [10] 57.1 µM | [11] > 100 µM | [13] > 100 µM | [14] > 100 µM

Cc1ccccc1C(=O)Oc1ccc(OCc2ccccc2)cc1
inactive: [1] 51.2 µM | [2] > 100 µM | [3] 95.7 µM | [4] 83.8 µM | [5] 34.5 µM | [6] > 100 µM | [7] 39.1 µM | [9] 19.1 µM | [10] 45.3 µM | [11] 9.18 µM | [12] 25.6 µM | [13] 63.8 µM | [14] 35.9 µM

Cc1ccc(S(=O)(=O)C2=c3nc4ccccc4cc3=C3C(=O)c4ccccc4C(=O)C32)cc1 (configuration not stated)
inactive: [1] > 100 µM | [2] > 100 µM | [3] > 100 µM | [4] > 100 µM | [5] 35 µM | [6] > 100 µM | [7] > 100 µM | [8] > 100 µM | [9] > 100 µM | [10] > 100 µM | [11] > 100 µM | [12] > 100 µM | [14] > 100 µM

CC(=O)Oc1cc2oc(=O)cc(C)c2cc1OC(C)=O
inactive: [1] 61 µM | [2] 85.7 µM | [3] 48.9 µM | [4] 58.2 µM | [5] 44.6 µM | [15] > 100 µM | [16] 52.7 µM | [6] 33.1 µM | [17] 32.4 µM | [9] 39.6 µM | [10] > 100 µM | [11] 42.2 µM | [18] 84.9 µM | [12] 45.7 µM | [13] 39.6 µM
